From US7772263B2, “Compounds for the treatment of inflammatory disorders” (Schering Corporation, priority 2006, dated 2010)

Target: T1, purified catalytic domain of recombinant human TACE (rhTACEc) (Homo sapiens, UniProt P78536, N452Q/S266A)
T1 construct: rhTACEc, Residue 215 to 477 with two mutation (S266A and N4520) and a 6×His tail; 6xHis (C); made in house; host or cells: baculovirus/Hi5 insect cells
Experiment: TACE kinetic assay, cleavage of internally quenched fluorescent peptide substrate SPDL-3
Type: biochemical
Conditions: TACE inhibition, Table 1001; read-out: Ki Rating

T1 sequence (P78536 215-477 S266A/N452Q limits assumed): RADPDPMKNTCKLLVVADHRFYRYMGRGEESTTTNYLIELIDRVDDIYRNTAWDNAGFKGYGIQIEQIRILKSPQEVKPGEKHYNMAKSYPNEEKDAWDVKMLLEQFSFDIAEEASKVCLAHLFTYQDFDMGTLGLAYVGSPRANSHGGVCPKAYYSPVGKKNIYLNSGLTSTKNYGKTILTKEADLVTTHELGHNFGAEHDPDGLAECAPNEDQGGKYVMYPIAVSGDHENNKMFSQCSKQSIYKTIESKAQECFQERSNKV

Row | SMILES | Ki [nM]
1 | COc1ccc2c(c1)C(=O)N(C[C@@]1(C#Cc3cncc(C)c3)NC(=O)NC1=O)C2 [Compound 1005] | < 5

Same assay, conditions: TACE; class letters A-D; read-out: Ki Rating

Row | SMILES | Ki [nM]
2 | COc1ccc2c(c1)C(=O)N(C[C@@]1(C#Cc3cncc(Cl)c3)NC(=O)NC1=O)C2 [Compound 1006] | < 5
3 | COc1ccc2c(c1)C(=O)N(C[C@@]1(C#Cc3ccc(F)cc3C)NC(=O)NC1=O)C2 [Compound 1007] | < 5
4 | COc1ccc2c(c1)C(=O)N(C[C@@]1(C#Cc3ccc4nccnc4c3)NC(=O)NC1=O)C2 [Compound 1008] | < 5
5 | COc1ccc2c(c1)C(=O)N(C[C@@]1(C#Cc3ccc4nc(N)[nH]c4c3)NC(=O)NC1=O)C2 [Compound 1009] | < 5
6 | COc1ccc2c(c1)C(=O)N(C[C@@]1(C#Cc3ccc4c(c3)COC4=O)NC(=O)NC1=O)C2 [Compound 1010] | < 5
7 | COc1ccc2c(c1)C(=O)N(C[C@@]1(C#Cc3ccc4nc(C)[nH]c4c3)NC(=O)NC1=O)C2 [Compound 1011] | < 5
8 | COc1ccc2c(c1)C(=O)N(C[C@@]1(C#Cc3ccc4[nH]cnc4c3)NC(=O)NC1=O)C2 [Compound 1012] | < 5
9 | COc1ccc2c(c1)C(=O)N(C[C@@]1(C#Cc3cnc4[nH]c(=O)[nH]c4c3)NC(=O)NC1=O)C2 [Compound 1013] | < 5
10 | COc1ccc2c(c1)C(=O)N(C[C@@]1(C#Cc3cccc4[nH]ncc34)NC(=O)NC1=O)C2 [Compound 1014] | < 5
11 | COc1ccc2c(c1)C(=O)N(C[C@@]1(C#Cc3cccc4cn[nH]c34)NC(=O)NC1=O)C2 [Compound 1015] | < 5
12 | COc1ccc2c(c1)C(=O)N(C[C@@]1(C#Cc3ccc4[nH]c(=O)sc4c3)NC(=O)NC1=O)C2 [Compound 1016] | < 5
13 | COc1ccc2c(c1)C(=O)N(C[C@@]1(C#Cc3ccc4c(c3)sc(=N)n4C)NC(=O)NC1=O)C2 [Compound 1017] | < 5
14 | COc1ccc2c(c1)C(=O)N(C[C@@]1(C#Cc3cccnc3C#N)NC(=O)NC1=O)C2 [Compound 1018] | < 5
15 | COc1ccc2c(c1)C(=O)N(C[C@@]1(C#Cc3ccc4c(c3)C(=O)NC4=O)NC(=O)NC1=O)C2 [Compound 1019] | < 5
16 | COc1ccc2c(c1)C(=O)N(C[C@]1(C#Cc3ccc(SC(F)(F)F)cc3)NC(=O)NC1=O)C2 [Compound 1036] | > 100
17 | O=C1NC(=O)[C@@](C#Cc2ccc(F)cc2)(CN2Cc3ccc(F)cc3C2=O)N1 [Compound 1037] | < 5
18 | COc1ccc2c(c1)C(=O)N(C[C@@]1(C#Cc3ccc(SC(F)(F)F)cc3)NC(=O)NC1=O)C2 [Compound 1038] | < 5
19 | COc1ccc2c(c1)C(=O)N(C[C@@]1(C#Cc3ccc(S(=O)(=O)C(F)(F)F)cc3)NC(=O)NC1=O)C2 [Compound 1039] | 5 to 25
20 | COc1ccc2c(c1)C(=O)N(C[C@@]1(C#Cc3cccc(O)c3)NC(=O)NC1=O)C2 [Compound 1040] | < 5
21 | O=C1NC(=O)[C@@](C#Cc2cccc(F)c2)(CN2Cc3ccc(F)cc3C2=O)N1 [Compound 1041] | < 5
22 | O=C1NC(=O)[C@@](C#Cc2ccc(F)cc2F)(CN2Cc3ccc(F)cc3C2=O)N1 [Compound 1042] | < 5
23 | COc1ccc(C#C[C@]2(CN3Cc4ccc(OC)cc4C3=O)NC(=O)NC2=O)cc1 [Compound 1043] | < 5
24 | COc1ccc2c(c1)C(=O)N(C[C@@]1(C#Cc3cccc(C)c3)NC(=O)NC1=O)C2 [Compound 1044] | < 5
25 | COc1ccc2c(c1)C(=O)N(C[C@@]1(C#Cc3ccc(C#N)cc3)NC(=O)NC1=O)C2 [Compound 1045] | < 5

Row | SMILES | Ki [nM]
26 | CCOc1cccc(C#C[C@]2(CN3Cc4ccc(OC)cc4C3=O)NC(=O)NC2=O)c1 [Compound 1046] | < 5
27 | COc1ccc2c(c1)C(=O)N(C[C@@]1(C#Cc3ccc4c(c3)CCO4)NC(=O)NC1=O)C2 [Compound 1047] | < 5
28 | COc1ccc2c(c1)C(=O)N(C[C@@]1(C#Cc3cccc(CO)c3)NC(=O)NC1=O)C2 [Compound 1048] | < 5
29 | COc1ccc2c(c1)C(=O)N(C[C@@]1(C#Cc3ccc(Cl)s3)NC(=O)NC1=O)C2 [Compound 1049] | < 5
30 | CCOc1ccc(C#C[C@]2(CN3Cc4ccc(OC)cc4C3=O)NC(=O)NC2=O)cc1 [Compound 1050] | < 5
31 | O=C1NC(=O)[C@](C#Cc2cccc(F)c2)(CN2Cc3ccc(F)cc3C2=O)N1 [Compound 1051] | 25 to 100
32 | O=C1NC(=O)[C@](C#Cc2ccc(F)cc2F)(CN2Cc3ccc(F)cc3C2=O)N1 [Compound 1052] | 25 to 100
33 | COc1ccc2c(c1)C(=O)N(C[C@@]1(C#Cc3ccc4oc(C)cc4c3)NC(=O)NC1=O)C2 [Compound 1053] | < 5
34 | COc1ccc2c(c1)C(=O)N(C[C@@]1(C#Cc3cc(Cl)ccc3OC)NC(=O)NC1=O)C2 [Compound 1054] | < 5
35 | COCc1cccc(C#C[C@]2(CN3Cc4ccc(OC)cc4C3=O)NC(=O)NC2=O)c1 [Compound 1055] | < 5
36 | COc1ccc2c(c1)C(=O)N(C[C@@]1(C#Cc3c(OC)ccc4c(C#N)cccc34)NC(=O)NC1=O)C2 [Compound 1056] | < 5
37 | COc1ccc2c(c1)C(=O)N(C[C@@]1(C#Cc3ccc(OC(C)C)cc3)NC(=O)NC1=O)C2 [Compound 1057] | < 5
38 | COc1ccc2c(c1)C(=O)N(C[C@@]1(C#Cc3ccc(OCC4CC4)cc3)NC(=O)NC1=O)C2 [Compound 1058] | < 5
39 | COc1ccc2c(c1)C(=O)N(C[C@@]1(C#Cc3cccc(COCC4CC4)c3)NC(=O)NC1=O)C2 [Compound 1059] | < 5
40 | COc1ccc2c(c1)C(=O)N(C[C@@]1(C#Cc3ccc(C(C)=O)s3)NC(=O)NC1=O)C2 [Compound 1060] | < 5
41 | COc1ccc2c(c1)C(=O)N(C[C@@]1(C#Cc3ccc(C(C)O)s3)NC(=O)NC1=O)C2 (stereo partly shown) [Compound 1061] | < 5
42 | COc1ccc2c(c1)C(=O)N(C[C@@]1(C#Cc3ccccc3C)NC(=O)NC1=O)C2 [Compound 1062] | < 5
43 | COc1ccc2c(c1)C(=O)N(C[C@@]1(C#Cc3cncc(O)c3)NC(=O)NC1=O)C2 [Compound 1063] | < 5
44 | COc1ccc2c(c1)C(=O)N(C[C@@]1(C#Cc3ccc(C#N)s3)NC(=O)NC1=O)C2 [Compound 1064] | < 5
45 | COc1ccc2c(c1)C(=O)N(C[C@@]1(C#Cc3ccc(C(=O)NC4CC4)cc3)NC(=O)NC1=O)C2 [Compound 1065] | < 5
46 | COc1ccc2c(c1)C(=O)N(C[C@]1(C#Cc3cncc(O)c3)NC(=O)NC1=O)C2 [Compound 1066] | > 100
47 | COc1ccc2c(c1)C(=O)N(C[C@]1(C#Cc3ccc(C(=O)NC4CC4)cc3)NC(=O)NC1=O)C2 [Compound 1067] | > 100
48 | COc1ccc2c(c1)C(=O)N(C[C@]1(C#Cc3ccc(C#N)s3)NC(=O)NC1=O)C2 [Compound 1068] | > 100
49 | COc1ccc2c(c1)C(=O)N(C[C@@]1(C#Cc3ccc4[nH]c(=O)[nH]c4c3)NC(=O)NC1=O)C2 [Compound 1069] | < 5

Row | SMILES | Ki [nM]
50 | COc1ccc2c(c1)C(=O)N(C[C@@]1(C#Cc3csc(CN)c3)NC(=O)NC1=O)C2 [Compound 1070] | < 5
51 | COc1ccc2c(c1)C(=O)N(C[C@@]1(C#Cc3cc(Cl)c(Br)s3)NC(=O)NC1=O)C2 [Compound 1071] | < 5
52 | COc1ccc2c(c1)C(=O)N(C[C@@]1(C#Cc3ccc(CO)s3)NC(=O)NC1=O)C2 [Compound 1072] | < 5
53 | COc1ccc2c(c1)C(=O)N(C[C@]1(C#Cc3ccc(C(C)N)cc3)NC(=O)NC1=O)C2 (stereo partly shown) [Compound 1073] | > 100
54 | CNCc1cc(C#C[C@@]2(CN3Cc4ccc(OC)cc4C3=O)NC(=O)NC2=O)cs1 [Compound 1074] | > 100
55 | COc1ccc2c(c1)C(=O)N(C[C@]1(C#Cc3ccc(C(C)O)cc3)NC(=O)NC1=O)C2 (stereo partly shown) [Compound 1075] | > 100
56 | COc1ccc2c(c1)C(=O)N(C[C@@]1(C#Cc3ccc([C@H](C)N)cc3)NC(=O)NC1=O)C2 [Compound 1076] | < 5
57 | CNCc1cc(C#C[C@@]2(CN3Cc4ccc(OC)cc4C3=O)NC(=O)NC2=O)cs1 [Compound 1077] | < 5
58 | COc1ccc2c(c1)C(=O)N(C[C@@]1(C#Cc3ccc(C(C)O)cc3)NC(=O)NC1=O)C2 (stereo partly shown) [Compound 1078] | < 5
59 | COc1ccc2c(c1)C(=O)N(C[C@@]1(C#Cc3cnccc3CO)NC(=O)NC1=O)C2 [Compound 1079] | < 5
60 | COc1ccc2c(c1)C(=O)N(C[C@@]1(C#Cc3sccc3Cl)NC(=O)NC1=O)C2 [Compound 1080] | < 5
61 | CON=Cc1ccc(C#C[C@@]2(CN3Cc4ccc(OC)cc4C3=O)NC(=O)NC2=O)cc1 [Compound 1081] | > 100
62 | CO/N=C(/C)c1ccc(C#C[C@]2(CN3Cc4ccc(OC)cc4C3=O)NC(=O)NC2=O)s1 [Compound 1082] | < 5
63 | CO/N=C(\C)c1ccc(C#C[C@]2(CN3Cc4ccc(OC)cc4C3=O)NC(=O)NC2=O)s1 [Compound 1083] | < 5
64 | CON=Cc1ccc(C#C[C@]2(CN3Cc4ccc(OC)cc4C3=O)NC(=O)NC2=O)s1 [Compound 1084] | < 5
65 | CO/N=C/c1cccc(C#C[C@]2(CN3Cc4ccc(OC)cc4C3=O)NC(=O)NC2=O)c1 [Compound 1085] | < 5
66 | CON=Cc1ccc(C#C[C@]2(CN3Cc4ccc(OC)cc4C3=O)NC(=O)NC2=O)cc1 [Compound 1086] | < 5
67 | COc1ccc2c(c1)CCN(CC1(C#Cc3cccnc3)NC(=O)NC1=O)C2=O (stereo not shown) [Compound 1087] | < 5
68 | COc1ccc2c(c1)CCN(CC1(C#Cc3ccc(Cl)s3)NC(=O)NC1=O)C2=O (stereo not shown) [Compound 1088] | 5 to 25
69 | COc1ccc2c(c1)C(=O)N(C[C@@]1(C#Cc3cccc(C=NO)c3)NC(=O)NC1=O)C2 [Compound 1089] | < 5
70 | COc1ccc2c(c1)C(=O)N(C[C@@]1(C#Cc3ccc(C(C)=NO)s3)NC(=O)NC1=O)C2 [Compound 1090] | < 5
71 | COc1ccc2c(c1)C(=O)N(C[C@@]1(C#Cc3ccc(C=NO)cc3)NC(=O)NC1=O)C2 [Compound 1091] | < 5

Same assay, conditions: rhTACEc 70 pM, 30 μM SPDL-3, 90 min pre-incubation at 25° C.; read-out: Ki (nM), TACE inhibitory activity

Row | SMILES | Ki [nM]
72 | COc1ccc2c(c1)C(=O)N(C[C@@]1(C#Cc3ccc4nc(N)[nH]c4c3)NC(=O)NC1=O)C2 [Compound 1009] | 1.33
73 | COc1ccc2c(c1)C(=O)N(C[C@@]1(C#Cc3ccc(C(C)=NO)s3)NC(=O)NC1=O)C2 [Compound 1090] | 0.3
